Data: ChEMBL document CHEMBL1201862, “PubChem BioAssay data set” (2004)
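Test compounds were applied to cells in 96-well plates for 48 hours at 5 doses. GI50 is the concentration that inhibits growth by half.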 The source made the active and inactive calls. No stated cut-off is given here; in the data, active = GI50 up to about 1.1 µM and inactive = higher.

Assays:
Assay in all cases: NCI-60 cell line screen, 48 h
[1] = test system: 786-0
[2] = test system: A549
[3] = test system: BT-549
[4] = test system: CCRF-CEM
[5] = test system: HCT-15
[6] = test system: IGROV-1
[7] = test system: K562
[8] = test system: MDA-N
[9] = test system: MOLT-4
[10] = test system: Malme-3M
[11] = test system: NCI-H522
[12] = test system: OVCAR-3
[13] = test system: OVCAR-5
[14] = test system: OVCAR-8
[15] = test system: RPMI-8226
[16] = test system: SF-295
[17] = test system: SK-MEL-2
[18] = test system: SK-MEL-5
[19] = test system: UO-31
[20] = test system: SR

Structure (SMILES)	GI50 [1]	GI50 [2]	GI50 [3]	GI50 [4]	GI50 [5]	GI50 [6]	GI50 [7]	GI50 [8]	GI50 [9]	GI50 [10]	GI50 [11]	GI50 [12]	GI50 [13]	GI50 [14]	GI50 [15]	GI50 [16]	GI50 [17]	GI50 [18]	GI50 [19]	GI50 [20]
CC(=O)OCC(OC(C)=O)C(OC(C)=O)C(OC(C)=O)C(C=NN(C(C)=O)S(=O)(=O)c1ccc(/C=C2\NC(=O)NC2=O)cc1)OC(C)=O (configuration not stated)	> 100 µM (inactive)	> 100 µM (inactive)	> 100 µM (inactive)	84.3 µM (inactive)	> 100 µM	> 100 µM (inactive)	> 100 µM (inactive)	> 100 µM (inactive)	> 100 µM (inactive)	> 100 µM (inactive)	> 100 µM (inactive)	> 100 µM (inactive)	> 100 µM (inactive)	> 100 µM (inactive)	> 100 µM (inactive)	> 100 µM (inactive)	> 100 µM (inactive)	> 100 µM (inactive)	> 100 µM (inactive)	
Cc1nn(C(=O)Cc2ccccc2)c2c1C(c1ccccc1)SC(=N)N2 (configuration not stated)	> 100 µM (inactive)	> 100 µM (inactive)	> 100 µM (inactive)	> 100 µM (inactive)	> 100 µM	> 100 µM (inactive)	> 100 µM (inactive)	> 100 µM (inactive)	> 100 µM (inactive)	> 100 µM (inactive)	> 100 µM (inactive)			> 100 µM (inactive)	> 100 µM (inactive)	> 100 µM (inactive)		> 100 µM (inactive)	> 100 µM (inactive)	> 100 µM (inactive)
O=C1/C(=C/Cc2ccco2)N=C(c2ccccc2)N1c1nc2ccc(Sc3ccccc3)cc2[nH]1	18 µM (inactive)	29.8 µM (inactive)	20.3 µM (inactive)	19.3 µM (inactive)	30.5 µM	30.3 µM (inactive)	28.1 µM (inactive)	6.12 µM (inactive)	16.3 µM (inactive)			21.9 µM (inactive)	25.9 µM (inactive)	20.9 µM (inactive)	24.2 µM (inactive)	29.7 µM (inactive)	16.1 µM (inactive)	15.9 µM (inactive)	19.2 µM (inactive)	13.6 µM (inactive)
C/C(CC(O)(C(F)(F)F)C(F)(F)F)=N\N	> 10 µM (inactive)	> 10 µM (inactive)	> 10 µM (inactive)	> 10 µM (inactive)	> 10 µM	> 10 µM (inactive)	> 10 µM (inactive)	> 10 µM (inactive)	> 10 µM (inactive)	> 10 µM (inactive)	> 10 µM (inactive)	> 10 µM (inactive)	> 10 µM (inactive)	> 10 µM (inactive)	> 10 µM (inactive)	> 10 µM (inactive)	> 10 µM (inactive)	> 10 µM (inactive)		
Cc1cc(S(=O)(=O)NC2=Nc3ccccc3C(c3ccccc3)N2)c(S)cc1Cl (configuration not stated)	8.2 µM (inactive)	18.2 µM (inactive)	> 100 µM (inactive)	32.6 µM (inactive)	59.3 µM	> 100 µM (inactive)	87.9 µM (inactive)	78 µM (inactive)	81.8 µM (inactive)	> 100 µM (inactive)	> 100 µM (inactive)	> 100 µM (inactive)	> 100 µM (inactive)	> 100 µM (inactive)	63.7 µM (inactive)	31.5 µM (inactive)		> 100 µM (inactive)	24.9 µM (inactive)	23.3 µM (inactive)
O=C(CCc1ccc(O)cc1)NCCc1ccc(O)cc1	> 100 µM (inactive)	> 100 µM (inactive)	62.4 µM (inactive)	> 100 µM (inactive)	> 100 µM	> 100 µM (inactive)	> 100 µM (inactive)	> 100 µM (inactive)	> 100 µM (inactive)	> 100 µM (inactive)	> 100 µM (inactive)	> 100 µM (inactive)	> 100 µM (inactive)	> 100 µM (inactive)		> 100 µM (inactive)	> 100 µM (inactive)	> 100 µM (inactive)	> 100 µM (inactive)	> 100 µM (inactive)
CCOC(=O)CCCn1nnc(C(=O)OCC)c1C(=O)OCC	> 100 µM (inactive)	> 100 µM (inactive)	> 100 µM (inactive)	> 100 µM (inactive)	> 100 µM	> 100 µM (inactive)		> 100 µM (inactive)	> 100 µM (inactive)	> 100 µM (inactive)				> 100 µM (inactive)		> 100 µM (inactive)	> 100 µM (inactive)	> 100 µM (inactive)	> 100 µM (inactive)	> 100 µM (inactive)
CC(C)=C[C@H]1CCC2(OCCO2)[C@]1(C)COCc1ccccc1	31 µM (inactive)	33.3 µM (inactive)	42.7 µM (inactive)	16.1 µM (inactive)	39.5 µM			33.7 µM (inactive)	13.8 µM (inactive)	23.9 µM (inactive)	29 µM (inactive)	22 µM (inactive)	18.4 µM (inactive)	38.6 µM (inactive)	18.2 µM (inactive)	40 µM (inactive)	25.5 µM (inactive)	16.3 µM (inactive)	43.6 µM (inactive)	
